Test results taken from the NIST ThermoML archive (doi:10.1021/je900387e).

Assay: xn = mol fraction of the nth substance listed
Conditions: Liquid, Pycnometric method

Cn1ccnc1 [1-methylimidazole] + O=C=O
mass density [kg/m3]
Conditions	332.4 K	337.4 K
13050 kPa, x1 = 0.0102	–	568
13150 kPa, x1 = 0.0102	–	576
13270 kPa, x1 = 0.0102	–	584
13350 kPa, x1 = 0.0102	600	–
13370 kPa, x1 = 0.0102	–	593
13490 kPa, x1 = 0.0102	–	601
13550 kPa, x1 = 0.0247	668	–
13560 kPa, x1 = 0.0102	612	–
13620 kPa, x1 = 0.0102	–	610
13730 kPa, x1 = 0.0247	675	–
13770 kPa, x1 = 0.0102	–	619
13790 kPa, x1 = 0.0102	623	–
13890 kPa, x1 = 0.0247	681	–
13910 kPa, x1 = 0.0102	–	628
13960 kPa, x1 = 0.0247	684	–
14040 kPa, x1 = 0.0102	636	–
14080 kPa, x1 = 0.0102	–	638
14140 kPa, x1 = 0.0247	690	–
14240 kPa, x1 = 0.0102	–	648
14320 kPa, x1 = 0.0102	649	–
14330 kPa, x1 = 0.0247	696	–
14430 kPa, x1 = 0.0102	–	658
14490 kPa, x1 = 0.0247	–	650
14520 kPa, x1 = 0.0247	703	–
14560 kPa, x1 = 0.0247	–	653
14630 kPa, x1 = 0.0102	–	669
14640 kPa, x1 = 0.0102	663	–
14660 kPa, x1 = 0.0247	–	658
14740 kPa, x1 = 0.0247	709	–
14780 kPa, x1 = 0.0247	–	662
14850 kPa, x1 = 0.0102	–	680
14900 kPa, x1 = 0.0247	–	666
14970 kPa, x1 = 0.0247	716	–
15020 kPa, x1 = 0.0247	–	671
15030 kPa, x1 = 0.0102	677	–
15080 kPa, x1 = 0.0102	–	691
15140 kPa, x1 = 0.0247	–	675
15220 kPa, x1 = 0.0247	723	–
15270 kPa, x1 = 0.0247	–	680
15350 kPa, x1 = 0.0102	–	703
15420 kPa, x1 = 0.0247	–	684
15450 kPa, x1 = 0.0487	779	–
15480 kPa, x1 = 0.0102	692	–
15480 kPa, x1 = 0.0247	730	–
15560 kPa, x1 = 0.0247	–	689
15710 kPa, x1 = 0.0487	784	–
15730 kPa, x1 = 0.0247	–	693
15740 kPa, x1 = 0.0102	–	719
15750 kPa, x1 = 0.0247	737	–
15880 kPa, x1 = 0.0247	–	698
15920 kPa, x1 = 0.0487	789	–
15960 kPa, x1 = 0.0247	742	–
15970 kPa, x1 = 0.0102	707	–
16050 kPa, x1 = 0.0247	–	703
16080 kPa, x1 = 0.0102	–	732
16130 kPa, x1 = 0.0487	794	–
16190 kPa, x1 = 0.0247	747	–
16230 kPa, x1 = 0.0247	–	708
16260 kPa, x1 = 0.0487	797	–
16390 kPa, x1 = 0.0487	799	–
16410 kPa, x1 = 0.0247	–	713
16430 kPa, x1 = 0.0247	752	–
16450 kPa, x1 = 0.0102	–	745
16520 kPa, x1 = 0.0487	801	–
16570 kPa, x1 = 0.0102	723	–
16600 kPa, x1 = 0.0487	–	768
16610 kPa, x1 = 0.0247	–	717
16640 kPa, x1 = 0.0487	–	769
16650 kPa, x1 = 0.0487	804	–
16720 kPa, x1 = 0.0247	758	–
16730 kPa, x1 = 0.0487	–	770
16830 kPa, x1 = 0.0487	806	–
16840 kPa, x1 = 0.0102	–	759
16850 kPa, x1 = 0.0487	–	773
16890 kPa, x1 = 0.0247	–	724
16910 kPa, x1 = 0.0247	762	–
16960 kPa, x1 = 0.0487	–	775
16970 kPa, x1 = 0.0487	809	–
17070 kPa, x1 = 0.0487	–	777
17090 kPa, x1 = 0.0247	766	–
17130 kPa, x1 = 0.0487	811	–
17170 kPa, x1 = 0.0487	–	780
17190 kPa, x1 = 0.0247	–	731
17260 kPa, x1 = 0.0102	740	–
17260 kPa, x1 = 0.0487	814	–
17290 kPa, x1 = 0.0487	–	782
17300 kPa, x1 = 0.0102	–	773
17300 kPa, x1 = 0.0247	770	–
17410 kPa, x1 = 0.0487	–	784
17440 kPa, x1 = 0.0487	817	–
17450 kPa, x1 = 0.0247	–	737
17510 kPa, x1 = 0.0247	774	–
17520 kPa, x1 = 0.1024	890	–
17560 kPa, x1 = 0.0487	–	787
17590 kPa, x1 = 0.0487	819	–
17680 kPa, x1 = 0.0247	–	742
17680 kPa, x1 = 0.0487	–	789
17680 kPa, x1 = 0.1024	892	–
17730 kPa, x1 = 0.1024	892	–
17750 kPa, x1 = 0.0487	821	–
17800 kPa, x1 = 0.0247	779	–
17800 kPa, x1 = 0.1024	893	–
17810 kPa, x1 = 0.0487	–	791
17820 kPa, x1 = 0.0102	–	788
17890 kPa, x1 = 0.1024	894	–
17920 kPa, x1 = 0.0487	824	–
17940 kPa, x1 = 0.0487	–	794
17960 kPa, x1 = 0.1024	895	–
18040 kPa, x1 = 0.1024	896	–
18060 kPa, x1 = 0.0102	757	–
18060 kPa, x1 = 0.0247	–	749
18090 kPa, x1 = 0.0487	–	797
18090 kPa, x1 = 0.1024	896	–
18120 kPa, x1 = 0.0487	827	–
18150 kPa, x1 = 0.1024	897	–
18200 kPa, x1 = 0.0102	–	798
18200 kPa, x1 = 0.1024	897	–
18210 kPa, x1 = 0.0487	–	799
18250 kPa, x1 = 0.1024	898	–
18280 kPa, x1 = 0.0487	829	–
18310 kPa, x1 = 0.1024	899	–
18350 kPa, x1 = 0.0487	–	800
18400 kPa, x1 = 0.1024	900	–
18470 kPa, x1 = 0.1024	900	–
18480 kPa, x1 = 0.0487	832	–
18510 kPa, x1 = 0.0487	–	804
18530 kPa, x1 = 0.1024	901	–
18580 kPa, x1 = 0.1024	901	–
18610 kPa, x1 = 0.0102	–	808
18620 kPa, x1 = 0.0102	769	–
18620 kPa, x1 = 0.1024	902	–
18670 kPa, x1 = 0.0487	835	806
18690 kPa, x1 = 0.1024	902	–
18750 kPa, x1 = 0.1024	903	–
18810 kPa, x1 = 0.0102	–	813
18820 kPa, x1 = 0.0487	–	809
18860 kPa, x1 = 0.0102	773	–
18860 kPa, x1 = 0.0487	837	–
18860 kPa, x1 = 0.1024	904	–
18940 kPa, x1 = 0.1024	905	–
18990 kPa, x1 = 0.0487	–	811
19040 kPa, x1 = 0.0487	840	–
